Results taken from patent publication US7968558B2, “Amidine derivatives of 2-heteroaryl-quinazolines and quinolines; potent analgesics and anti-inflammatory agents” (Rottapharm S.p.A., priority 2006, dated 2011).
Where a name gives a salt, the structure may show the parent alone.

Columns and labels:
[1] = test system: IL-1 production; test: IL-1 production in IL-1 stimulated human chondrosarcoma cell line; type: cell-based; conditions: Compound concentration is 10 μM
Source text: (§1) The compounds of the invention have been found effective in interfering with cytokine production in several cell lines, representative examples of this effect are reported in Table 3, for two representative cytokines, in IL-1 stimulated human chondrosarcoma cell line.

[2] = test system: acetic acid-induced abdominal writhes; test: Acetic acid-induced writhing test; type: in vivo, mice; conditions: for MPE (%): 30 min. before acetic acid
Description: With the aim of assessing whether the compounds of the invention are able to inhibit responses to peritoneal irritation-induced visceral pain, the acetic acid-induced writhing assay was used in mice to determine the degree of anti-nociception.
The writhing test is a model of inflammatory pain that has long been used as a screening tool for evaluation of analgesic and anti-inflammatory agents (HDJ Collier, B. J. Pharmacol Chemother., 1968, 32, 295-310). The test was performed inducing nociception by an i.p. injection of acetic acid 1%, 0.1 mL/10 g of body weight. Mice were pre-treated (subcutaneously, s.c., three different doses: 3, 10, 30 mg/Kg) with the tested compounds 30 min. before acetic acid injection, while control animals received a similar volume of saline solution. A group of mice was treated with Paracetamol (200 mg/Kg, s.c.) as reference drug. The number of abdominal writhes (full extension of both hind paws) was cumulatively counted every 5 minutes over a period of 20 min. immediately after the acetic acid injection. The anti-nociceptive activity was expressed as inhibition of abdominal writhes as maximum percent effect (MPE), which represents the difference (%) in pain threshold between the animals treated with the drug and the ones that received only the vehicle.

[3] = test system: COX-2 expression; test: IL-1β induced COX-2 expression in SW1353 human chondrosarcoma cell line; type: cell-based; conditions: at 10 μM
Source text: (§2) Conversely, compounds of the invention are able to inhibit, at micromolar concentration, IL-1β induced PGE2 production in cellular systems. This inhibition effect on the production of the pro-inflammatory mediator PGE2, instead of to be ascribed to a direct COX-2 inhibition, as happens with Celecoxib and other COX-2 inhibitors, is in this case due to inhibition of cytokine induced COX-2 expression as proven in cellular systems.
(§3) Effectiveness in inhibition of PGE2 production induced by IL-1β in chondrocyte cell culture, as well as inhibition in IL-1β induced COX-2 expression in SW1353 human chondrosarcoma cell line, is summarized in Table 2, for representative compounds of the invention.

[4] = test system: IL-1β induced PGE2 production; test: PGE2 production induced by IL-1β in chondrocyte cell culture; type: cell-based, rabbit; conditions: at 10 μM
Source text: as §2, §3

[5] = test system: IL-6 production; test: IL-6 production in IL-1 stimulated human chondrosarcoma cell line; type: cell-based; conditions: Compound concentration is 10 μM
Source text: as §1

[6] = test system: CFA-induced hyperalgesia; test: CFA model of chronic inflammatory pain; type: in vivo, rat
[7] = test system: mechanical hyperalgesia associated with STZ-induced diabetes; test: STZ-induced diabetes mechanical hyperalgesia (neuropathic pain); type: in vivo, rat
Description: Streptozotocin (STZ)-induced diabetes in the rat has been increasingly used as a model of painful diabetic neuropathy to assess the efficacies of potential analgesic agents (C. Courteix, Pain 1993, 53, 81-8). The compounds of the invention were tested for efficacy in reducing mechanical hyperalgesia associated with STZ-induced diabetes in the rat, according to the experimental model as described by the literature. Diabetes was produced with the injection of a single dose (75 mg/Kg i.p.) of STZ. In the following four weeks after the induction of diabetes the clinical symptoms (weight, body and skin temperature, motility and hyperglycemia) progressively developed by the animals, are strictly monitored. After four weeks, the scores obtained in diabetic rats to various pain stimuli (in particular mechanical stimuli) were grater than those in normal rats, indicating hyperalgesia. The hyperalgesia induced by diabetes was evaluated using the Randall-Selitto method as above described, and quantitated using the analgesimeter. Also in this case, the difference in the mechanical pain threshold between the basal value (generally 230-250 g) and the one tolerated by the animals treated with the drug, is defined as mechanical hyperalgesia. The compounds of the invention were administered i.p. (solution, Tween 80, 10% in saline) at different doses, and mechanical hyperalgesia was measured at the reported time, as maximum percent effect (MPE) which represents the difference (%) in pain threshold between the animals treated with the drug and the controls that received only the vehicle, compared with the weight borne by naïf non-diabetic controls. A 100% protection means that the diabetic animals treated with the compound can tolerate the same stimulus (weight) as the naïf non-diabetic animals. MPE higher than 100% means that the diabetic animal treated with the compound can tolerate stimuli (weight) higher than the control non-diabetic animals (hypoalgesia).

[8] = test system: Zymosan-induced mechanical hyperalgesia; test: Zymosan-induced mechanical hyperalgesia (Randall-Selitto); type: in vivo, rat
Description: (§4) The interplantar injection of Zymosan-induced mechanical hyperalgesia was used as a model of inflammatory pain (Meller, Neuropharmacology, 1994, 33, 1471-1478). In this model, typically a male Sprague-Dawley or Wistar rat (200-250 g) receives an interplantar injection of 3 mg/100 μl zymosan into one hind paw. A marked inflammation occurs in this hind paw. Drugs are administered orally for evaluation of efficacy, 30 min. before the inflammatory insult. The hyperalgesia induced by zymosan administration was evaluated using the Randall-Selitto method (Arch. Int. Pharmacodyn., 1957, 111, 409). The quantitation of the analgesic effect is achieved by an analgesimeter, which consist in applying to the inflamed paw an increasing weight (from 130-140 g up to 500 g). The difference in the mechanical pain threshold between the basal value (generally 230-250 g) and the one tolerated by the animals treated with the drug, determined 4 hours after the inflammatory challenge, is defined as mechanical hyperalgesia.
(§5) Mechanical hyperalgesia is expressed for the compounds of the invention as ED50, which is the dose of the administered compound able to increase the pain threshold by 50% in comparison with the group of control animals. The corresponding ED100, representing the dose able of reducing of 100% the pain threshold, can be calculated for those cases where there is a linear dose-response relationship. In vivo anti-inflammatory effect exerted by the compound of the invention can be assessed in the same Zymosan induced inflammation test described above, by measuring the volume of the oedema induced by the inflammatory agent. The oedema was evaluated as the increase in the volume of the Zymosan injected paw within a time of 0-2 hrs. The measurements of the variation of the oedema volume of the paw were recorded using hydroplethysmometer, which consists of two plastic cuvettes containing a surfactant liquid, the larger one being used for immersion of the paw, connected to the smaller one which contains a trans-ducer capable of recording small displacements of the volume used for the measure. The paw is immersed in the cuvettes up to the tibiotarsal joint. The volume of the liquid displaced is proportional to the extent of the inflammation. The efficacy of the compounds of the invention in preventing oedema formation is expressed as ED30, and is measured 2 hours after the inflammatory challenge, and represents the dose able of reducing of 30%, the Zymosan induced paw volume increase in comparison to control animals (animals treated with Zymosan but treated with only distilled water instead of the testing compound). The corresponding ED50, representing the dose able of reducing of 50% the zymosan induced paw volume increase, can be calculated for those cases where there is a linear dose-response relationship.
(§6) In both the experiments, for each test compound, at least three doses were used, with 10 animals per group. Compounds of the invention were tested at 10, 20 and 40 mg/Kg.

[9] = test system: Zymosan induced paw volume increase; test: Zymosan-induced paw oedema; type: in vivo, rat
Description: as §4, §5, §6

Compound: CC(=N)Nc1ccc2nc(-c3ccc4c(c3)OCO4)ccc2c1 [Example 2, N-[2-(1,3-benzodioxol-5-yl)quinolin-6-yl]acetamidine dihydrochloride]
- Inhibition (%) of IL-1 production [1]: 45%
- MPE (%) ([2]; 3 mg/Kg s.c.): 59%
- MPE (%) ([2]; 10 mg/Kg s.c.): 61%
- MPE (%) ([2]; 30 mg/Kg s.c.): 57%
- ED50 ([2]; Mus musculus, sc): < 3 mg/kg
- Inhibition of COX-2 expression in SW1353 human chondrosarcoma cell line, % at 10 μM [3]: 59% at 10 μM
- Effects on PGE2 production in rabbit Chondrocyte culture, % at 10 μM [4]: 70% at 10 μM
- Inhibition (%) of IL-6 production [5]: 78%
- MPE 0.5 hrs. ([6]; 3 mg/Kg i.p.): 36%
- MPE 1.5 hrs. ([6]; 3 mg/Kg i.p.): 40%
- MPE 3 hrs. ([6]; 3 mg/Kg i.p.): 7%
- MPE 0.5 hrs. ([6]; 10 mg/Kg i.p.): 94%
- MPE 1.5 hrs. ([6]; 10 mg/Kg i.p.): 34%
- MPE 3 hrs. ([6]; 10 mg/Kg i.p.): 11%
- MPE 24 hrs. ([6]; 10 mg/Kg i.p.): 13%
- MPE 0.5 hrs. ([6]; 30 mg/Kg i.p.): 188%
- MPE 1.5 hrs. ([6]; 30 mg/Kg i.p.): 81%
- MPE 3 hrs. ([6]; 30 mg/Kg i.p.): 34%
- MPE 24 hrs. ([6]; 30 mg/Kg i.p.): 9%
- MPE 0.5 hrs. ([7]; 3 mg/Kg i.p.): 32%
- MPE 1.5 hrs. ([7]; 3 mg/Kg i.p.): 75%
- MPE 3 hrs. ([7]; 3 mg/Kg i.p.): 8%
- MPE 0.5 hrs. ([7]; 10 mg/Kg i.p.): 76%
- MPE 1.5 hrs. ([7]; 10 mg/Kg i.p.): 107%
- MPE 3 hrs. ([7]; 10 mg/Kg i.p.): 13%
- MPE 0.5 hrs. ([7]; 30 mg/Kg i.p.): 151%
- MPE 1.5 hrs. ([7]; 30 mg/Kg i.p.): 124%
- MPE 3 hrs. ([7]; 30 mg/Kg i.p.): 93%
- ED50 ([8]; Rattus norvegicus, read-out: Analgesia ED50): 10.7 mg/kg
- Analgesia ED100 ([8]; oral, calculated from linear dose-response): 22 mg/kg
- ED50 ([9]; Rattus norvegicus, po, read-out: Oedema Reduction ED50): 98 mg/kg
- Oedema Reduction ED30 ([9]; oral, 2 hours after challenge): 15.0 mg/kg
